From US20160326558A1, “Process for Stimulating Hyaluronic Acid Production with Ascorbic Acid Derivatives and the Composition Thereof” (CORUM INC., priority 2012, published 2016)
“And” between values parts separate entries of the source, which are not always exact repeats. Equal values may be shown once.

Tests used:
Format in all cases: cell-based
[1] = test system: human fibroblast (Hs68); assay: Stimulating hyaluronic acid production in human fibroblast, Echelon HA-ELISA (Example 2); details: for Hyaluronic Acid Content Stimulated, Average / Hyaluronic Acid Content Stimulated, single entries: 72 h, vs negative control = 100%
Excerpt: (§1) Cell Line: Hs68 (BCRC 60038, purchased from Bioresource Collection and Research Center) Complete Medium (as positive control): DMEM medium with 10% Fetal Bovine Serum (DMEM purchased from Corning Incorporated and Caisson Labs; FBS purchased from Caisson Labs) Starvation Medium (as negative control): DMEM medium with 0.1% Fetal Bovine Serum (DMEM purchased from Corning Incorporated and Caisson Labs; FBS purchased from Caisson Labs) Hyaluronan Enzyme-Linked Immunosorbent Assay Kit (HA-ELISA) (Brand: Echelon/Cat No K-1200) Complete medium is used in cell seeding stage. The confluent Hs68 cells are rinsed with sterile D-PBS, and trypsinize all cells and perform cell counting. Then, dilute the cell density to 4E+04/mL and seed 0.5 mL cell liquid (equals to 2E+04 cells) each well in 24 well plates. Incubate Hs68 cells at 37° C., 5% CO2 for about 24 hours. Starvation medium is used in this stage. The 24-hour-cultured Hs68 cells are rinsed with sterile D-PBS and discarded rinse buffer. Controls and testing materials in different concentrations are respectively added into the Hs68 cells in 24 well plates. Then, the Hs68 cells are incubated at 37° C., with 5% CO2 for about 72 hours. After incubating for about 72 hours, transfer some supernatant of cells treating with controls and testing materials into new containers. Centrifuge the supernatants at 2000 rpm for 5˜10 minutes. The hyaluronic acid content of the centrifuged supernatants are respectively determined by Hyaluronan Enzyme-Linked Immunosorbent Assay Kit, and calculated with the following Formula 2. [formula]

[2] = test system: mouse fibroblast (3T3); assay: Cell viability of mouse fibroblast (Example 1); details: concentration larger than 7500 ppm
[3] = test system: mouse fibroblast (3T3); assay: Stimulating hyaluronic acid production in mouse fibroblast, Echelon HA-ELISA (Example 1)
Excerpt: as §1, with “3T3” for “Hs68”, “60071,” for “60038,”, “0.1%” for “0.1% Fetal”, “treated” for “treating”, “1.” for “2.”

[4] = test system: mouse fibroblast (3T3); assay: Stimulating hyaluronic acid production in mouse fibroblast, R&D HA-ELISA (Examples 3 and 5); details: for Hyaluronic Acid Content Stimulated, Average / Hyaluronic Acid Content Stimulated, single entries: 72 h, vs negative control = 100%
Protocol: Complete medium is used in cell seeding stage. The confluent 3T3 cells are rinsed with sterile D-PBS, and trypsinize all cells and perform cell counting. Then, dilute the cell density to 4E+04/mL and seed 0.5 mL cell liquid (equals to 2E+04 cells) each well in 24 well plates. Incubate 3T3 cells at 37° C., 5% CO2 for about 24 hours. Starvation medium is used in this stage. The 24-hour-cultured 3T3 cells are rinsed with sterile D-PBS and discarded rinse buffer. Controls and testing materials in different concentrations are respectively added into the 3T3 cells in 24 well plates. Then, the 3T3 cells are incubated at 37° C., with 5% CO2 for about 72 hours. After incubating for about 72 hours, transfer some supernatant of cells treated with controls and testing materials into new containers. Centrifuge the supernatants at 2000 rpm for 5˜10 minutes. The hyaluronic acid content of the centrifuged supernatants are respectively determined by Hyaluronan Enzyme-Linked Immunosorbent Assay Kit, and calculated with the following Formula 1. [formula] In this example, we try another brand HA-ELISA kit (R&D; Cat No. DHYAL0) to figure out the reproducibility of the stimulatory effect. Excluding replacing the HA-ELISA kit, the materials and the procedures can be referred to the above Example 1. In this example, we try to figure out whether the stimulatory effect also can be found on ascorbic acid. Excluding replacing the HA-ELISA kit to another brand HA-ELISA kit (R&D; Cat No. DHYAL0) and replacing the testing material to ascorbic acid, the other materials and the procedures can be referred to the above Example 1.

[5] = test system: human fibroblast (Hs68); assay: Cell viability of human fibroblast (Example 2); details: 10000 ppm
[6] = test system: mouse fibroblast (3T3); assay: Hyaluronic acid content stimulated by 3-O-ethyl ascorbic acid and AA2G in mouse fibroblast (Table 6); details: for Hyaluronic Acid Content Stimulated, Average / Hyaluronic Acid Content Stimulated, single entries: vs negative control = 100%
[7] = 5000 ppm, 72 h, vs negative control = 100%

CCOC1=C(O)C(=O)O[C@@H]1[C@@H](O)CO [3-O-ethyl-ascorbic acid]
Hyaluronic Acid Content Stimulated, Average ([1]; 10 ppm): 107.2%
Hyaluronic Acid Content Stimulated, single entries ([1]; 10 ppm): 92.7% and 123.3% and 105.7%
Hyaluronic Acid Content Stimulated, Average ([1]; 100 ppm): 148.8%
Hyaluronic Acid Content Stimulated, single entries ([1]; 100 ppm): 200.9% and 130.3% and 115.1%
stimulated hyaluronic acid production, dose dependence (in words) ([1]; 1000-10 ppm): dose-dependently
Hyaluronic Acid Content Stimulated, Average ([1]; 1000 ppm): 182.7%
Hyaluronic Acid Content Stimulated, single entries ([1]; 1000 ppm): 170.1% and 172.6%
Hyaluronic Acid Content Stimulated, Average ([1]; 10000 ppm): 32.5%
cell viability [2]: inhibited
stimulated hyaluronic acid production (in words) ([3]; 10-5000 ppm): efficiently increased
Hyaluronic Acid Content Stimulated, Average ([3]; 10 ppm, 72 h, vs negative control = 100%): 164.6%
Hyaluronic Acid Content Stimulated, Average ([3]; 100 ppm, 72 h, vs negative control = 100%): 133.1%
Hyaluronic Acid Content Stimulated, Average ([3]; 1000 ppm, 72 h, vs negative control = 100%): 148.9%
Hyaluronic Acid Content Stimulated, Average ([3]; 2500 ppm, 72 h, vs negative control = 100%): 165.0%
Hyaluronic Acid Content Stimulated, Average [3, 7]: 149.0%
Hyaluronic Acid Content Stimulated, single entries [3, 7]: 110.3% and 214.1% and 161.9% and 109.6%
Hyaluronic Acid Content Stimulated, Average ([3]; 7500 ppm, 72 h, vs negative control = 100%): 91.0%
Hyaluronic Acid Content Stimulated, Average ([3]; 10000 ppm, 72 h, vs negative control = 100%): 89.4%
Hyaluronic Acid Content Stimulated, Average ([4]; 1.25 ppm): 143.0%
Hyaluronic Acid Content Stimulated, single entries ([4]; 1.25 ppm): 100.0% and 156.8% and 172.0%
Hyaluronic Acid Content Stimulated, Average ([4]; 2.5 ppm): 145.9%
Hyaluronic Acid Content Stimulated, single entries ([4]; 2.5 ppm): 119.7% and 135.2% and 182.8%
Hyaluronic Acid Content Stimulated, Average ([4]; 5 ppm): 137.1%
Hyaluronic Acid Content Stimulated, Average ([4]; 7.5 ppm): 135.9%
Hyaluronic Acid Content Stimulated, single entries ([4]; 7.5 ppm): 115.9% and 143.8% and 148.1%
Hyaluronic Acid Content Stimulated, Average ([4]; 10 ppm, Table 3): 147.1%
Hyaluronic Acid Content Stimulated, single entries ([4]; 10 ppm, Table 3): 101.0% and 158.1% and 182.2%
Hyaluronic Acid Content Stimulated, Average ([4]; 100 ppm, Table 3): 171.2%
Hyaluronic Acid Content Stimulated, single entries ([4]; 100 ppm, Table 3): 166.8% and 155.7% and 191.2%
Hyaluronic Acid Content Stimulated, Average ([4]; 1000 ppm): 177.8%
Hyaluronic Acid Content Stimulated, Average ([4]; 2500 ppm): 159.3%
Hyaluronic Acid Content Stimulated, single entries ([4]; 2500 ppm): 148.7% and 176.3% and 152.8%
stimulated hyaluronic acid production, dose dependence (in words) ([4]; 5000-5 ppm): dose-dependently
Hyaluronic Acid Content Stimulated, Average ([4]; 5000 ppm): 184.2%
Hyaluronic Acid Content Stimulated, single entries ([4]; 5000 ppm): 131.8% and 180.4%
Hyaluronic Acid Content Stimulated, Average ([4]; 7500 ppm): 143.8%
Hyaluronic Acid Content Stimulated, single entries ([4]; 7500 ppm): 119.9% and 130.8% and 180.7%
Hyaluronic Acid Content Stimulated, Average ([4]; 10000 ppm): 109.0%
cell viability [5]: inhibited
Hyaluronic Acid Content Stimulated, Average ([6]; 10 ppm): 122%
Hyaluronic Acid Content Stimulated, single entries ([6]; 10 ppm): 125% and 122% and 118%
Hyaluronic Acid Content Stimulated, Average ([6]; 100 ppm): 138%
Hyaluronic Acid Content Stimulated, single entries ([6]; 100 ppm): 115% and 161% and 138%
Hyaluronic Acid Content Stimulated, Average ([6]; 1000 ppm): 171%
Hyaluronic Acid Content Stimulated, single entries ([6]; 1000 ppm): 180% and 165% and 168%
stimulatory of producing hyaluronic acid (in words) ([6]; Table 6, 10-1000 ppm): helpful to the stimulatory of producing hyaluronic acid
